The test system of one series is MRSA ATCC 33592. The series is described as follows: MIC determination in broth. The format is cell-based, Staphylococcus aureus. Particulars: Table S5; STIP3 variants, highest conc. tested 100 μg/mL; cation-adjusted MH broth, ~10^5 CFU/mL, 2-fold dilution series, 37°C, 16 h. As to the method:
(§1) M. luteus ATCC 4698, S. aureus ATCC 29213, a panel of 7 MRSA (ATCC MP-2) strains, which includes ATCC BAA-41, BAA-42, BAA-44, BAA-1683, BAA-2094, BAA-2313, and 33592, and a series of additional bacterial isolates from human and veterinary cases were used in this study (Table S6). Bacterial strains were routinely grown in lysogeny broth (LB: 10 g/L tryptone, 5 g/L yeast extract, 10 g/L NaCl) at 30°C (M. luteus) or 37°C (Staphylococcus spp.) prior to use in specific experiments described below.
(§2) The MICs were measured for bioactive peptides identified from the initial screen. Cation-adjusted Mueller-Hinton (MH) broth was used as the growth medium for MIC determination experiments. Bacterial cultures were diluted to an OD of 5 × 10^−4 (∼10^5 CFU/mL) in 200 μL MH broth mixed with peptides in a 2-fold dilution series arrayed in 96-well plates. Plates were incubated without shaking at 30 or 37°C depending on the organism.

For another series, the system named is MRSA ATCC BAA-1683. Nature of the series: MIC determination in broth. The series is classed as cell-based, Staphylococcus aureus. Particulars: STIP3 variants, highest conc. tested 100 μg/mL; cation-adjusted MH broth, ~10^5 CFU/mL, 2-fold dilution series, 37°C, 16 h. As to the method: as §1, §2
Another series deals with MRSA ATCC BAA-2094. The series is described as follows: MIC determination in broth. The series is classed as cell-based, Staphylococcus aureus. Conditions: STIP3 variants, highest conc. tested 100 μg/mL; cation-adjusted MH broth, ~10^5 CFU/mL, 2-fold dilution series, 37°C, 16 h. On the procedure: as §1, §2
A further series deals with MRSA ATCC BAA-2313. Nature of the series: MIC determination in broth. Conditions: STIP3 variants, highest conc. tested 100 μg/mL; cation-adjusted MH broth, ~10^5 CFU/mL, 2-fold dilution series, 37°C, 16 h. The series is classed as cell-based, Staphylococcus aureus. As to the method: as §1, §2
The subject of another series is MRSA ATCC BAA-41. The series is described as follows: MIC determination in broth. The format is cell-based, Staphylococcus aureus. Conditions: STIP3 variants, highest conc. tested 100 μg/mL; cation-adjusted MH broth, ~10^5 CFU/mL, 2-fold dilution series, 37°C, 16 h. On the procedure: as §1, §2
The subject of a further series is MRSA ATCC BAA-42. Nature of the series: MIC determination in broth. The series is classed as cell-based, Staphylococcus aureus. Conditions: STIP3 variants, highest conc. tested 100 μg/mL; cation-adjusted MH broth, ~10^5 CFU/mL, 2-fold dilution series, 37°C, 16 h. As to the method: as §1, §2
The next series deals with MRSA ATCC BAA-44. The series is described as follows: MIC determination in broth. Conditions: STIP3 variants, highest conc. tested 100 μg/mL; cation-adjusted MH broth, ~10^5 CFU/mL, 2-fold dilution series, 37°C, 16 h. The format is cell-based, Staphylococcus aureus. On the procedure:
as §1, §2

Another series concerns S. aureus ATCC 29213. Nature of the series: MIC determination in broth. The series is classed as cell-based, Staphylococcus aureus. Conditions: STIP3 variants, highest conc. tested 100 μg/mL; cation-adjusted MH broth, ~10^5 CFU/mL, 2-fold dilution series, 37°C, 16 h. On the procedure: as §1, §2
In the next series the test system is SspA. Nature of the series: SspA protease resuspended at 2 mg/mL in 100 mM HEPES (pH 7.8). Particulars: 37°C, up to 5 h.

Bounds are passed on as bounds.

Consider “TVKGLVKWILNVVKKFA [STIP3-14, rationally designed STIP3-1 variant]”, for which the “MIC, S. aureus ATCC 33592 (SCCmec III)” value in the series with MRSA ATCC 33592 amounted to 12.5 µg/mL. In addition, the “MIC, S. aureus ATCC BAA 1683 (SCCmec IV)” value in the series on MRSA ATCC BAA-1683 is 25 µg/mL. In addition, the “MIC, S. aureus ATCC BAA 2094 (SCCmec V)” value in the series with MRSA ATCC BAA-2094 came out at 50 µg/mL. The “MIC, S. aureus ATCC BAA 2313 (SCCmec XI)” value against MRSA ATCC BAA-2313 is 12.5 µg/mL. The “MIC, S. aureus ATCC BAA 41 (SCCmec II)” value against MRSA ATCC BAA-41 stood at 25 µg/mL. For the same substance, the “MIC, S. aureus ATCC BAA 42 (SCCmec VI)” value in the series with MRSA ATCC BAA-42 was 25 µg/mL. Moreover, the “MIC, S. aureus ATCC BAA 44 (SCCmec I)” value against MRSA ATCC BAA-44 amounted to 25 µg/mL. Further, the “MIC, S. aureus ATCC 29213” value in the series with S. aureus ATCC 29213 is 25 µg/mL.
In the case of “TVKGLVKWILNVVKKFA-NH2 [STIP3-30, rationally designed STIP3-1 variant, C-terminal amide]”, the “MIC, S. aureus ATCC 33592 (SCCmec III)” value against MRSA ATCC 33592 stood at 12.5 µg/mL. The “MIC, S. aureus ATCC BAA 1683 (SCCmec IV)” value with MRSA ATCC BAA-1683 is 12.5 µg/mL. Moreover, the “MIC, S. aureus ATCC BAA 2094 (SCCmec V)” value in the series with MRSA ATCC BAA-2094 came out at 25 µg/mL. In addition, the “MIC, S. aureus ATCC BAA 2313 (SCCmec XI)” value with MRSA ATCC BAA-2313 is 25 µg/mL. Besides, in the series with MRSA ATCC BAA-41, the “MIC, S. aureus ATCC BAA 41 (SCCmec II)” value was determined as 25 µg/mL. Moreover, the “MIC, S. aureus ATCC BAA 42 (SCCmec VI)” value against MRSA ATCC BAA-42 stood at 25 µg/mL. Also, the “MIC, S. aureus ATCC BAA 44 (SCCmec I)” value against MRSA ATCC BAA-44 was 12.5 µg/mL. For the same substance, the “MIC, S. aureus ATCC 29213” value with S. aureus ATCC 29213 came to 12.5 µg/mL.
For “TVKKLVKWILKTVKKFA [STIP3-18, rationally designed STIP3-1 variant]”, the “MIC, S. aureus ATCC 33592 (SCCmec III)” value against MRSA ATCC 33592 was 100 µg/mL. The “MIC, S. aureus ATCC BAA 1683 (SCCmec IV)” value with MRSA ATCC BAA-1683 is on record as “> (The > symbol indicates that no inhibition was observed at 100 μg/mL for the STIP3 variants)”. Also, in the series on MRSA ATCC BAA-2094, the “MIC, S. aureus ATCC BAA 2094 (SCCmec V)” value worked out at 100 µg/mL. Further, the “MIC, S. aureus ATCC BAA 2313 (SCCmec XI)” value in the series on MRSA ATCC BAA-2313 is “> (The > symbol indicates that no inhibition was observed at 100 μg/mL for the STIP3 variants)”. For the same substance, the “MIC, S. aureus ATCC BAA 41 (SCCmec II)” value in the series with MRSA ATCC BAA-41 came out at 100 µg/mL. Further, the “MIC, S. aureus ATCC BAA 42 (SCCmec VI)” value in the series on MRSA ATCC BAA-42 is on record as “> (The > symbol indicates that no inhibition was observed at 100 μg/mL for the STIP3 variants)”. Further, the “MIC, S. aureus ATCC BAA 44 (SCCmec I)” value in the series on MRSA ATCC BAA-44 came out at 100 µg/mL. Moreover, the “MIC, S. aureus ATCC 29213” value in the series on S. aureus ATCC 29213 turned out to be 100 µg/mL.
In the case of “TVKVLVKWILKVVAKFA [STIP3-26, rationally designed STIP3-1 variant]”, the “MIC, S. aureus ATCC 33592 (SCCmec III)” value against MRSA ATCC 33592 is “> (The > symbol indicates that no inhibition was observed at 100 μg/mL for the STIP3 variants)”. Besides, the “MIC, S. aureus ATCC BAA 1683 (SCCmec IV)” value against MRSA ATCC BAA-1683 was “> (The > symbol indicates that no inhibition was observed at 100 μg/mL for the STIP3 variants)”. Further, the “MIC, S. aureus ATCC BAA 2094 (SCCmec V)” value in the series with MRSA ATCC BAA-2094 is reported as “> (The > symbol indicates that no inhibition was observed at 100 μg/mL for the STIP3 variants)”. For the same substance, in the series on MRSA ATCC BAA-2313, the “MIC, S. aureus ATCC BAA 2313 (SCCmec XI)” value is reported as “> (The > symbol indicates that no inhibition was observed at 100 μg/mL for the STIP3 variants)”. Besides, in the series on MRSA ATCC BAA-41, the “MIC, S. aureus ATCC BAA 41 (SCCmec II)” value was “> (The > symbol indicates that no inhibition was observed at 100 μg/mL for the STIP3 variants)”. Moreover, the “MIC, S. aureus ATCC BAA 42 (SCCmec VI)” value against MRSA ATCC BAA-42 is “> (The > symbol indicates that no inhibition was observed at 100 μg/mL for the STIP3 variants)”. For the same substance, the “MIC, S. aureus ATCC BAA 44 (SCCmec I)” value in the series with MRSA ATCC BAA-44 was “> (The > symbol indicates that no inhibition was observed at 100 μg/mL for the STIP3 variants)”. In addition, in the series with S. aureus ATCC 29213, the “MIC, S. aureus ATCC 29213” value was “> (The > symbol indicates that no inhibition was observed at 100 μg/mL for the STIP3 variants)”.
Take “TVRALVKWILRTVAKFA [STIP3-20, rationally designed STIP3-1 variant]”: the “MIC, S. aureus ATCC 33592 (SCCmec III)” value against MRSA ATCC 33592 was 25 µg/mL. Moreover, the “MIC, S. aureus ATCC BAA 1683 (SCCmec IV)” value against MRSA ATCC BAA-1683 worked out at 25 µg/mL. Moreover, in the series with MRSA ATCC BAA-2094, the “MIC, S. aureus ATCC BAA 2094 (SCCmec V)” value was determined as 25 µg/mL. Moreover, the “MIC, S. aureus ATCC BAA 2313 (SCCmec XI)” value against MRSA ATCC BAA-2313 was found to be 50 µg/mL. The “MIC, S. aureus ATCC BAA 41 (SCCmec II)” value against MRSA ATCC BAA-41 came to 12.5 µg/mL. The “MIC, S. aureus ATCC BAA 42 (SCCmec VI)” value against MRSA ATCC BAA-42 was determined as 25 µg/mL. Also, the “MIC, S. aureus ATCC BAA 44 (SCCmec I)” value against MRSA ATCC BAA-44 turned out to be 25 µg/mL. The “MIC, S. aureus ATCC 29213” value with S. aureus ATCC 29213 stood at 25 µg/mL.
For the substance “TVRALVRWILRTVARFA [STIP3-23, rationally designed STIP3-1 variant]”, in the series with MRSA ATCC 33592, the “MIC, S. aureus ATCC 33592 (SCCmec III)” value is 25 µg/mL. Also, the “MIC, S. aureus ATCC BAA 1683 (SCCmec IV)” value in the series on MRSA ATCC BAA-1683 was found to be 25 µg/mL. In addition, in the series with MRSA ATCC BAA-2094, the “MIC, S. aureus ATCC BAA 2094 (SCCmec V)” value stood at 50 µg/mL. The “MIC, S. aureus ATCC BAA 2313 (SCCmec XI)” value in the series with MRSA ATCC BAA-2313 is 25 µg/mL. Further, the “MIC, S. aureus ATCC BAA 41 (SCCmec II)” value in the series on MRSA ATCC BAA-41 is 6.25 µg/mL. Also, in the series on MRSA ATCC BAA-42, the “MIC, S. aureus ATCC BAA 42 (SCCmec VI)” value was determined as 50 µg/mL. In the series on MRSA ATCC BAA-44, the “MIC, S. aureus ATCC BAA 44 (SCCmec I)” value amounted to 25 µg/mL. Also, the “MIC, S. aureus ATCC 29213” value in the series on S. aureus ATCC 29213 turned out to be 25 µg/mL.
For the substance “TVXALVXWILXTVAXFA [STIP3-22, rationally designed STIP3-1 variant with L-ornithine]”, the “MIC, S. aureus ATCC 33592 (SCCmec III)” value with MRSA ATCC 33592 is 25 µg/mL. Also, in the series with MRSA ATCC BAA-1683, the “MIC, S. aureus ATCC BAA 1683 (SCCmec IV)” value was 25 µg/mL. In addition, the “MIC, S. aureus ATCC BAA 2094 (SCCmec V)” value with MRSA ATCC BAA-2094 was 25 µg/mL. For the same substance, the “MIC, S. aureus ATCC BAA 2313 (SCCmec XI)” value in the series with MRSA ATCC BAA-2313 was found to be 100 µg/mL. For the same substance, in the series on MRSA ATCC BAA-41, the “MIC, S. aureus ATCC BAA 41 (SCCmec II)” value came out at 25 µg/mL. Moreover, the “MIC, S. aureus ATCC BAA 42 (SCCmec VI)” value with MRSA ATCC BAA-42 stood at 25 µg/mL. The “MIC, S. aureus ATCC BAA 44 (SCCmec I)” value against MRSA ATCC BAA-44 stood at 25 µg/mL. For the same substance, the “MIC, S. aureus ATCC 29213” value in the series with S. aureus ATCC 29213 amounted to 25 µg/mL.
Regarding f-MTKDIVETVGGLVKWILDTVKKFA, the not cleaved result with SspA is “no SspA cleavage was observed”.

The values are drawn from article PMC8694143 (Microbiology Spectrum, 2021).
